Results as given in US10689398B2, “OXA-Diazaspiro compounds having activity against pain” (ESTEVE PHARMACEUTICALS, S.A., priority 2015, dated 2020).

Target: human σ1 receptor (Homo sapiens (Human), UniProt Q99720)
Assay: Human σ1 receptor radioligand assay
Assay type: binding
Conditions: transfected HEK-293 membranes, [3H](+)-pentazocine radioligand
Experimental: Human σ1 Receptor Radioligand Assay
To investigate binding properties of test compounds to human σ1 receptor, transfected HEK-293 membranes and [^3H](+)-pentazocine (Perkin Elmer, NET-1056), as the radioligand, were used. The assay was carried out with 7 μg of membrane suspension, 5 nM of [^3H](+)-pentazocine in either absence or presence of either buffer or 10 μM Haloperidol for total and non-specific binding, respectively. Binding buffer contained Tris-HCl 50 mM at pH 8. Plates were incubated at 37° C. for 120 minutes. After the incubation period, the reaction mix was then transferred to MultiScreen HTS, FC plates (Millipore), filtered and plates were washed 3 times with ice-cold 10 mM Tris-HCL (pH7.4). Filters were dried and counted at approximately 40% efficiency in a MicroBeta scintillation counter (Perkin-Elmer) using EcoScint liquid scintillation cocktail

Sequence of human σ1 receptor (Q99720 whole entry): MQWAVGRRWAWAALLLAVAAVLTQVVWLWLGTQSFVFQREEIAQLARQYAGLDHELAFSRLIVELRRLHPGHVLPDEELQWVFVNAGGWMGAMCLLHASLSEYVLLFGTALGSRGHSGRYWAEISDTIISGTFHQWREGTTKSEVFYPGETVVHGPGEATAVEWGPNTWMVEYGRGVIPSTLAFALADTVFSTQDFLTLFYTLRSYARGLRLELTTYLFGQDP

Ki: ≥ 500 nM
SMILES: CN1CC2(CCCN(Cc3ccc(C#N)cc3)CC2)OC2(CC2)C1=O (stereo not shown) [Example 73, 4-((13-methyl-14-oxo-4-oxa-8,13-diazadispiro[2.1.6.3]tetradecan-8-yl)methyl)benzonitrile]
